Assay results published in publication PMC5347165, “Killing of Staphylococcus aureus and Salmonella enteritidis and neutralization of lipopolysaccharide by 17-residue bovine lactoferricins: improved activity of Trp/Ala-containing molecules” (Scientific Reports, 2017).
Several values for one entry are separate records, joined by “and”; a condition that tells them apart may be missing. Equal entries are not always repeated. Where two headings read alike, the source gives them in different places.

Assays:
[1] = test system: genomic DNA from E. coli O157; assay: Gel retardation (EMSA) of genomic DNA; assay type: binding, Escherichia coli; conditions: 0.7% agarose gel, 10 min 37 °C; ratios tested 0, 0.5, 1, 2.5, 5, 10 (w/w)
Method: Genomic DNA was extracted from S. aureus ATCC25923, E. coli O157 and S. enteritidis CVCC3377 using a TIANamp Bacteria DNA Kit (TIANGEN Biotech Co., Ltd., Beijing). The gel retardation experiment was performed by mixing the bacterial DNA with different concentrations of Lfcin4 or Lfcin5 in 20 μl binding buffer (10 mM Tris-HCl, pH 8.0, 5% glycerol, 1 mM dithiothreitol, 1 mM EDTA, 20 mM KCl, and 50 μg/ml bovine serum albumin)[41]. The ratios of peptide to DNA were 0, 0.5, 1, 2.5, 5.0, and 10.0 (w/w). The mixtures were incubated for 10 min at 37 °C and then subjected to electrophoresis on a 0.7% agarose gel.

S. aureus ATCC25923 [2] = assay type: in vivo; conditions: for reduction of bacterial burden in thigh: 10 h after treatment
Method: The thigh infection protocol was performed as previously described. Female BALB/c mice (6 weeks old, 22 ± 2 g) were rendered neutropenic (neutrophils, 100/mm^3) by intraperitoneal injection with 150 and 100 mg cyclophosphamide per kg of body weight for 4 d and 1 d before infection, respectively. Mice were inoculated with 100 μl of S. aureus ATCC25923 cells (1.0 × 10^7 CFU/ml) and given a single dose (0.2 ml) of Lfcin4 or Lfcin5 (10 or 15 mg/kg of body weight) or vancomycin (10 mg/kg of body weight) by tail vein injection at 2 h post-infection. Mice were humanely euthanized by cervical dislocation at 5 and 10 h after treatment. Thighs were removed and homogenized in sterile PBS for a CFU assay for S. aureus ATCC25923.

S. pullorum CVCC1789 = assay type: cell-based; conditions: microtiter broth dilution, 10^5 CFU/ml, 16‒18 h at 37 °C; representative of three independent experiments
Method: The MIC values of LfcinB17-33 derivatives against bacteria were determined by the microtiter broth dilution method. Briefly, 10 μl of serially diluted aliquots of peptides were added to each well of 96-well microtiter plates, followed by the addition of 90 μl exponential phase bacteria (10^5 CFU/ml) and incubated for 16‒18 h at 37 °C.

S. aureus ATCC25923 [3] = assay: Cell surface hydrophobicity, hexadecane partitioning; assay type: cell-based, Staphylococcus aureus; conditions: peptide 1×, 2× or 4× MIC, 10 min 37 °C, increased from 5.27% (untreated) to this value, mean, n = 3
Method: The effects of AMPs on the cell surface hydrophobicity of S. aureus ATCC25923 and S. enteritidis CVCC3377 were measured using the hexadecane partitioning method. Cells were grown to stationary phase in Mueller-Hinton broth at 37 °C, harvested by centrifugation at 5000 rpm for 4 min, washed twice with sterile normal saline, and suspended in 0.1 M KNO3 (pH 6.2) to an OD600 nm of 0.4. […] Sterile normal saline was used as a negative control, and the optical density at 600 nm was measured as OD0. Subsequently, a 1.2-ml cell suspension was mixed with 0.2 ml of hexadecane by vortexing for 1 min, and then, the mixture was incubated for 15 min. The OD600 nm value of the aqueous phase was determined as OD1. The hydrophobicity percentages were calculated by the following equation: hydrophobicity (%) = (1 − OD1/OD0) × 100%. All experiments were repeated three times.

LPS from E. coli O111:B4 = assay: LPS-induced endotoxemia model, survival; assay type: in vivo, mouse (C57BL/6); conditions: followed 7 d, groups of eight mice
Method: Male C57BL/6 mice (8 weeks old, 22 ± 2 g) were intraperitoneally injected with 30 mg/kg of LPS (0.2 ml) from E. coli O111:B4 cells as previously described. Mice were intraperitoneally injected with Lfcin4 or Lfcin5 (10, 15 or 20 mg/kg of body weight in 0.2 ml) or colistin (15 mg/kg of body weight in 0.2 ml) at 0.5, 8 and 24 h after inoculation with LPS, respectively. Mice injected with LPS or saline only served as positive or mock-treated controls, respectively. Survival was recorded every 12 h and followed for up to 7 d.

[4] = Calcein leakage from model membranes; conditions: at 5 min, POPC/POPG (1:3) LUVs, 0.1% Triton X-100 = total
Method: Large unilamellar vesicles (LUVs) composed of POPC/POPG (1:3) were used as a model anionic membrane. […] were dissolved in chloroform, dried under nitrogen gas and vacuum-dried for 2 h. The lipid film was rehydrated in 20 mM HEPES (150 mM NaCl, 1 mM EDTA, pH 7.4). To make calcein-encapsulated unilamellar liposomes, the lipid film was suspended in 5 mM sodium HEPES (containing 100 mM calcein, pH 7.5). The liposome suspensions were freeze-thawed in liquid nitrogen five times and extruded ten times through two stacked polycarbonate filters (100 nm pore size) in an Avanti Mini-Extruder. Untrapped calcein was removed using a Sephadex G-50 column (Amersham Pharmacia Biotech, Little Chalfont, UK). Peptides were then added to the LUVs. After a 10-min incubation at room temperature, the release of calcein form vesicles was monitored for 10 min on a Tecan Infinite M200 PRO plate reader (TECAN, Austria) with an excitation wavelength of 485 nm and an emission wavelength of 535 nm. The total calcein fluorescence (FT) was determined by the addition of 0.1% Triton X-100. Dye leakage was calculated according to the following equation: leakage rate (%) = ((F − F0)/(FT − F0)), where F0 indicates the fluorescence of each sample at T = 0.

S. enteritidis CVCC337 = assay: Outer membrane permeabilization, NPN uptake; assay type: cell-based, Salmonella enteritidis; conditions: 1×, 2× or 4 × MIC; HEPES buffer pH 7.2
Method: The effects of Lfcin4 and Lfcin5 on the outer membrane of S. aureus ATCC25923 and S. enteritidis CVCC3377 were determined by measuring the uptake of NPN[44][45]. Mid-log phase cells were washed with sterile normal saline three times and suspended in 5 mM HEPES buffer (pH 7.2, containing 5 mM glucose) to an OD at 600 nm of 0.5. […] The relative fluorescence intensity was measured using an Infinite M200 PRO plate reader. The excitation and emission wavelengths were set at 328 and 438 nm, respectively. Treatment with PBS severed as a negative control, and treatment with ampicillin or colistin was used as a positive control.

FKAWRWAWRMKKLAAPS [Lfcin4, 17-residue LfcinB17-31 derivative, Trp/Ala-containing]
peptide:DNA mass ratio at which migration of genomic DNA is impaired [1]: over 1.0 mass ratio (peptide:DNA)
reduction of bacterial burden in thigh (S. aureus ATCC25923 [2]; 10 mg/kg single i.v. dose (Fig. 6A)): 0.03 log10 CFU/g
reduction of bacterial burden in thigh (S. aureus ATCC25923 [2]; 15 mg/kg single i.v. dose (Fig. 6A)): 0.10 log10 CFU/g
S. aureus cells killed (S. aureus ATCC25923 [2]; 10 h post-treatment, 15 mg/kg single i.v. dose): 20.5%
greater reduction of viable bacteria in infected thighs compared to control mice (S. aureus ATCC25923 [2]; increasing doses from 10 to 15 mg/kg (discussion)): 0.85 log10 CFU/g of tissue
MIC (S. pullorum CVCC1789): >58 μM and >128 μg/ml
cell surface hydrophobicity (S. aureus ATCC25923 [3]): 18.87%
survival rate (LPS from E. coli O111:B4; 10 mg/kg i.p. at 0.5, 8 and 24 h after LPS 30 mg/kg i.p.): 75%
survival rate (LPS from E. coli O111:B4; 15 mg/kg i.p. at 0.5, 8 and 24 h after LPS 30 mg/kg i.p.): 100%
survival rate (LPS from E. coli O111:B4; 20 mg/kg i.p. at 0.5, 8 and 24 h after LPS 30 mg/kg i.p.): 100%
dye (calcein) leakage from vesicles ([4]; 1× MIC): 45.5%
dye (calcein) leakage from vesicles ([4]; 2× MIC): 90.6%
dye (calcein) leakage from vesicles ([4]; 4× MIC): 98.4%
time to permeabilization of the outer membrane (NPN fluorescence) (S. enteritidis CVCC337): ≤ 1 min
